Legend:
PI3Kδ = PI3Kδ (Homo sapiens (Human), UniProt O00329); experiment: Enzymatic activity of PI3K isoforms, TR-FRET assay (PI3Kδ); format: biochemical; details: 2× Km ATP, geometric mean if more than one value
In short: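 Recombinant heterodimeric PI3Kβ or PI3Kδ (25-50 pM) was run with 2 μM PIP2 and 2× Km ATP (75-500 μM) at pH 7.4, for 30 min at 25° C. PIP3 formation was detected by TR-FRET displacement of labeled PIP3 from Eu-GRP-1. IC50 values in nM come from four-parameter fits, as geometric means.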

PI3Kβ = PI3Kβ (Homo sapiens (Human), UniProt P42338); experiment: Enzymatic activity of PI3K isoforms, TR-FRET assay (PI3Kβ); format: biochemical; details: 2× Km ATP, geometric mean if more than one value
Procedure: Enzymatic activity of the class I PI3K isoforms in the presence of the compounds of Table 1 and Compounds X, Y and Z was measured using a time-resolved fluorescence resonance energy transfer (TR-FRET) assay. The TR-FRET assay was used to monitor formation of the product 3,4,5-inositol triphosphate molecule (PIP3) as it competed with fluorescently labeled PIP3 for binding to the GRP-1 pleckstrin homology domain protein. An increase in […] product results in a decrease in TR-FRET signal as the labeled fluorophore is displaced from the GRP-1 protein binding site.
Class I PI3K isoforms were expressed and purified as heterodimeric recombinant proteins. All assay reagents and buffers for the TR-FRET assay were purchased from Millipore. PI3K isoforms were assayed under initial rate conditions in the presence of 25 mM Hepes (pH 7.4), and 2× Km ATP (75-500 μM), 2 μM PIP2, 5% glycerol, 5 mM MgCl2, 50 mM NaCl, 0.05% (v/v) Chaps, 1 mM dithiothreitol, 1% (v/v) DMSO at the following concentrations for each isoforms: PI3Kα, PI3Kβ, and PI3Kδ between 25 and 50 pM, and PI3Kγ at 2 nM. After an assay reaction time of 30 minutes at 25° C., reactions were terminated with a final concentration of 10 mM EDTA, 10 nM labeled-PIP3, and 35 nM Europium labeled GRP-1 detector protein before reading TR-FRET on an Envision plate reader (Ex: 340 nm; Em: 615/665 nm; […] delay and 500 μs read window).
Data were normalized based on positive ([…] wortmanin) and negative (DMSO) controls. α, β, δ, and γ IC50 values were calculated from the fit of the dose-response curves to a four-parameter equation. All IC50 values represent geometric mean values if more than one value was obtained. IC50 values were reported in units of nM.

basophils = experiment: Basophil activation in human whole blood (Flow2 CAST kit, CD63 flow cytometry); format: cell-based; details: Homo sapiens, human whole blood, basophils activated with anti-FcεRI mAb or fMLP, percent CD63 positive cells
[1] = Hepatocyte stability (parent drug disappearance in cryopreserved hepatocytes); format: in vitro ADME, human; details: human, cryopreserved human hepatocytes, human hepatocytes, 2 μM substrate, 37° C.
In short: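 Test article at 2 μM incubated in duplicate with 1 million hepatocytes/mL at 37 °C, 5% CO2, humidified. Parent loss tracked by LC/MS at 0, 1, 2 and 4 h, giving half-life (t1/2) in hours.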

Chain of PI3Kβ (P42338 whole entry, the tested form may be a part, canonical isoform): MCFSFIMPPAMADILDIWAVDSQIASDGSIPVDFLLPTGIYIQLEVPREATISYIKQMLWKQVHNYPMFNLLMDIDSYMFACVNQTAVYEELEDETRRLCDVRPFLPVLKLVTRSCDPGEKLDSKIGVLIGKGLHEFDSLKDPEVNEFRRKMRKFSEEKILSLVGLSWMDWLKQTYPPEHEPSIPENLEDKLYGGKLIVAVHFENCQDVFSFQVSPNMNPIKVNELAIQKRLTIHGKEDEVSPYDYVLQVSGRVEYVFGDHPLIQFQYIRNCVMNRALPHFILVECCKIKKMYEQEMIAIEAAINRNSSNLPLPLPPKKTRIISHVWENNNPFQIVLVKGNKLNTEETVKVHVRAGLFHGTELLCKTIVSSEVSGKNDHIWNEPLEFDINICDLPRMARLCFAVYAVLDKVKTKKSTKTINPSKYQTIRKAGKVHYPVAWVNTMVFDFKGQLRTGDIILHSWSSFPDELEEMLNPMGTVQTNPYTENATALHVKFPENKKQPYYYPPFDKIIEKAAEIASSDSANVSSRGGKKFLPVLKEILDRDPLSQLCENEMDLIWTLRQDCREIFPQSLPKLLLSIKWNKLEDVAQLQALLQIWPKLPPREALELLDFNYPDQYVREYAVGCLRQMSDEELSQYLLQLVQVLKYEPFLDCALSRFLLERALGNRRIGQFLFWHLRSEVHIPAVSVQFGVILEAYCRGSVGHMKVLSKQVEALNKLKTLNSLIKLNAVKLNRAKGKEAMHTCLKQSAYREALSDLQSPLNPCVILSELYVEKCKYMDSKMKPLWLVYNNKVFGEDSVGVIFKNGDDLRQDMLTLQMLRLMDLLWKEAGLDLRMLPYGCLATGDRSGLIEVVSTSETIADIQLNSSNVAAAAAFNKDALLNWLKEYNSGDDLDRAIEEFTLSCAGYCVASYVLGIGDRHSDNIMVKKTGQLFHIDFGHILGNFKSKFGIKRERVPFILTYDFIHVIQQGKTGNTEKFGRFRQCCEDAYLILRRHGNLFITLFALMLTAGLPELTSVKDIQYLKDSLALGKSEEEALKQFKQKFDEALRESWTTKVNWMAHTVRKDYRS
Chain of PI3Kβ (P27986 whole entry partner, the tested form may be a part, canonical isoform): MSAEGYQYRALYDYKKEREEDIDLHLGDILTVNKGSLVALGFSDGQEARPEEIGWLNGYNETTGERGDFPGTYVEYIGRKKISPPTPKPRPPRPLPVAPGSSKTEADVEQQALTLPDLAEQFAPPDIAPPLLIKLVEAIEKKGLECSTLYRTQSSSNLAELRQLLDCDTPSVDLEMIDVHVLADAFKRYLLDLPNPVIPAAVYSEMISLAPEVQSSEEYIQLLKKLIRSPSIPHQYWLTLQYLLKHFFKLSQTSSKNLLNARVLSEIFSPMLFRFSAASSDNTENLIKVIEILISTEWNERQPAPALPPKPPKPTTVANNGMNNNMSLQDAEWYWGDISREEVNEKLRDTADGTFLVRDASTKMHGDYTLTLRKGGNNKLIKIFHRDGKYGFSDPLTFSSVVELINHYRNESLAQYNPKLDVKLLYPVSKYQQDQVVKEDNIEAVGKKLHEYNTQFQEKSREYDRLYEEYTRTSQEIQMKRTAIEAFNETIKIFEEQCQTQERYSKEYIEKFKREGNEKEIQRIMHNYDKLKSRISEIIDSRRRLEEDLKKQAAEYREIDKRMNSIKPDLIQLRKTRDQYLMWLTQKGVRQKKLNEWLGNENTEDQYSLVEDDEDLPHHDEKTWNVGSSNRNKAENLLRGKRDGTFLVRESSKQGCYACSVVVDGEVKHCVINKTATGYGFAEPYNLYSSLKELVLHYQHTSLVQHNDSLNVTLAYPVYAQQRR
Chain of PI3Kδ (O00329 whole entry, canonical isoform): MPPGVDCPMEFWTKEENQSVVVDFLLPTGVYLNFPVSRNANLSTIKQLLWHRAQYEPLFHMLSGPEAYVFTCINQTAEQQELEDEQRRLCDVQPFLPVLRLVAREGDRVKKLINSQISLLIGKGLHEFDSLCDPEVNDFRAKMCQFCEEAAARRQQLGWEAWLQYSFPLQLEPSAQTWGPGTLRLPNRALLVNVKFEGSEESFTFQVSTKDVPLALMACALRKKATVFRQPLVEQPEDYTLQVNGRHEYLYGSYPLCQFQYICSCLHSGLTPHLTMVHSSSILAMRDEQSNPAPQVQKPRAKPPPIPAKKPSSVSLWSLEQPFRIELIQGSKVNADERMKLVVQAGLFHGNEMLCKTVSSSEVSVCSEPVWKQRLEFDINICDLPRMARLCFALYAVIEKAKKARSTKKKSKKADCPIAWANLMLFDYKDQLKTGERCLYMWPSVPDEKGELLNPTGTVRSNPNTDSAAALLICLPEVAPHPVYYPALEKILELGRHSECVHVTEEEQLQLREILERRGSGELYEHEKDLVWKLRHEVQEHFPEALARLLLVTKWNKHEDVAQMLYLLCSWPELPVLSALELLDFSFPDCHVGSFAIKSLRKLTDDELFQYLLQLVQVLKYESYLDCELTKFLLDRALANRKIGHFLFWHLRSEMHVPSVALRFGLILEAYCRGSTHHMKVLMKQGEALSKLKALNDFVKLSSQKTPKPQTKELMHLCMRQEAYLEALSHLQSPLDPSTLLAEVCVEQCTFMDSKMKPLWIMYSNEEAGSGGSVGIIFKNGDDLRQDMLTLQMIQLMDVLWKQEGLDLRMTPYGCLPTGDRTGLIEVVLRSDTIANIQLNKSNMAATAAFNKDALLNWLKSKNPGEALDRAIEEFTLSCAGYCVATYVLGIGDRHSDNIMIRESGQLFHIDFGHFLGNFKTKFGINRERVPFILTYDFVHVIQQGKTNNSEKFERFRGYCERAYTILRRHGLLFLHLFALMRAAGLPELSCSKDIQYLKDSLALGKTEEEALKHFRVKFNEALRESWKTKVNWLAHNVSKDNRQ
Chain of PI3Kδ (P27986 whole entry partner, canonical isoform): as the sequence (P27986 whole entry partner, the tested form may be a part, canonical isoform) above

Compound | IC50 (PI3Kδ) | IC50 (PI3Kβ) | EC50 (basophils; class symbol) | EC50 (basophils; geometric mean) | half-life at 2 μM ([1]; class symbol) | half-life at 2 μM ([1]; Table 3)
CC[C@H](Nc1nc(N)nc(N)c1Cl)c1nc2cccc(Cl)c2c(=O)n1-c1ccc(N)nc1 [Compound 86, (S)-3-(6-aminopyridin-3-yl)-5-chloro-2-(1-((2,6-diamino-5-chloropyrimidin-4-yl)amino)propyl)quinazolin-4(3H)-one] | 9 nM | 35 nM |  |  |  | 
CCC[C@H](Nc1nc(N)nc(N)c1Cl)c1nc2ccc(F)c(Cl)c2c(=O)n1-c1ccc(N)nc1 [Compound 104, (S)-3-(6-aminopyridin-3-yl)-5-chloro-2-(1-((2,6-diamino-5-chloropyrimidin-4-yl)amino)butyl)-6-fluoroquinazolin-4(3H)-one] | 94 nM | 530 nM |  |  |  | 
Nc1ccc(-n2c([C@@H](Nc3nc(N)nc(N)c3Cl)C3CC3)nc3cccc(Cl)c3c2=O)cn1 [Compound 89, (S)-3-(6-aminopyridin-3-yl)-5-chloro-2-(cyclopropyl((2,6-diamino-5-chloropyrimidin-4-yl)amino)methyl)quinazolin-4(3H)-one] | 9 nM | 27 nM |  |  |  | 
C[C@H](Nc1nc(N)nc(N)c1Cl)c1nc2ccc(F)c(Cl)c2c(=O)n1-c1ccc(N)nc1 [Compound 100, (S)-3-(6-aminopyridin-3-yl)-5-chloro-2-(1-((2,6-diamino-5-chloropyrimidin-4-yl)amino)ethyl)-6-fluoroquinazolin-4(3H)-one] | 48 nM | 100 nM |  |  |  | 
Nc1ccc(-n2c([C@@H](Nc3nc(N)nc(N)c3Cl)C3CC3)nc3c(F)ccc(Cl)c3c2=O)cn1 [Compound 106, (S)-3-(6-aminopyridin-3-yl)-5-chloro-2-(cyclopropyl((2,6-diamino-5-chloropyrimidin-4-yl)amino)methyl)-8-fluoroquinazolin-4(3H)-one] | 31 nM | 180 nM |  |  |  | 
Cc1cc(N)ncc1-n1c([C@@H](Nc2nc(N)nc(N)c2C#N)C2CC2)nc2c(Cl)ccc(Cl)c2c1=O (atropisomer, axis not shown) [Compound 99, (S)-2,4-diamino-6-(((3-(6-amino-4-methylpyridin-3-yl)-5,8-dichloro-4-oxo-3,4-dihydroquinazolin-2-yl)(cyclopropyl)methyl)amino)pyrimidine-5-carbonitrile] | 640 nM | 3600 nM |  |  |  | 
C[C@H](Nc1nc(N)nc(N)c1Cl)c1nc2c(Cl)cc(F)cc2c(=O)n1-c1ccc(N)nc1 [Compound 81, (S)-3-(6-aminopyridin-3-yl)-8-chloro-2-(1-((2,6-diamino-5-chloropyrimidin-4-yl)amino)ethyl)-6-fluoroquinazolin-4(3H)-one] | 84 nM | 180 nM |  |  |  | 
C[C@H](Nc1nc(N)nc(N)c1C#N)c1nc2ccc(F)c(Cl)c2c(=O)n1-c1ccc(N)nc1 [Compound 101, (S)-2,4-diamino-6-((1-(3-(6-aminopyridin-3-yl)-5-chloro-6-fluoro-4-oxo-3,4-dihydroquinazolin-2-yl)ethyl)amino)pyrimidine-5-carbonitrile] | 8 nM | 11 nM |  |  |  | 
CCC[C@H](Nc1nc(N)nc(N)c1C#N)c1nc2ccc(F)c(Cl)c2c(=O)n1-c1ccc(N)nc1 [Compound 105, (S)-2,4-diamino-6-((1-(3-(6-aminopyridin-3-yl)-5-chloro-6-fluoro-4-oxo-3,4-dihydroquinazolin-2-yl)butyl)amino)pyrimidine-5-carbonitrile] | 9 nM | 41 nM |  |  |  | 
Cc1cc(N)ncc1-n1c([C@@H](Nc2nc(N)nc(N)c2C#N)C2CC2)nc2c(Cl)ccc(Cl)c2c1=O (atropisomer, axis not shown) [Compound 98, (S)-2,4-diamino-6-(((3-(6-amino-4-methylpyridin-3-yl)-5,8-dichloro-4-oxo-3,4-dihydroquinazolin-2-yl)(cyclopropyl)methyl)amino)pyrimidine-5-carbonitrile] | 21 nM | 160 nM |  |  |  | 
CCC[C@H](Nc1nc(N)nc(N)c1Cl)c1nc2cccc(Cl)c2c(=O)n1-c1ccc(N)nc1 [Compound 102, (S)-3-(6-aminopyridin-3-yl)-5-chloro-2-(1-((2,6-diamino-5-chloropyrimidin-4-yl)amino)butyl)quinazolin-4(3H)-one] | 15 nM | 62 nM |  |  |  | 
C[C@H](Nc1nc(N)nc(N)c1Cl)c1nc2c(Cl)ccc(Cl)c2c(=O)n1-c1ccc(N)nc1 [Compound 83, (S)-3-(6-aminopyridin-3-yl)-5,8-dichloro-2-(1-((2,6-diamino-5-chloropyrimidin-4-yl)amino)ethyl)quinazolin-4(3H)-one] | 12 nM | 42 nM |  |  |  | 

The next molecules have a lower IC50 (PI3Kδ) than those just listed; values first:

IC50 (PI3Kδ) | IC50 (PI3Kβ) | EC50 (basophils; class symbol) | EC50 (basophils; geometric mean) | half-life at 2 μM ([1]; class symbol) | half-life at 2 μM ([1]; Table 3) | Compound
2 nM | 30 nM |  |  |  |  | Cc1cc(N)ncc1-n1c([C@H](C)Nc2nc(N)nc(N)c2C#N)nc2cccc(Cl)c2c1=O (atropisomer, axis not shown) [Compound 93, (S)-2,4-diamino-6-((1-(3-(6-amino-4-methylpyridin-3-yl)-5-chloro-4-oxo-3,4-dihydroquinazolin-2-yl)ethyl)amino)pyrimidine-5-carbonitrile]
0.6 nM | 33 nM |  |  |  |  | C[C@H](Nc1nc(N)nc(N)c1C#N)c1nc2cccc(Cl)c2c(=O)n1-c1cncc(N)c1 [Compound 108, (S)-2,4-diamino-6-((1-(3-(5-aminopyridin-3-yl)-5-chloro-4-oxo-3,4-dihydroquinazolin-2-yl)ethyl)amino)pyrimidine-5-carbonitrile]
1 nM | 3 nM |  |  |  |  | CCC[C@H](Nc1nc(N)nc(N)c1C#N)c1nc2cccc(Cl)c2c(=O)n1-c1ccc(N)nc1 [Compound 103, (S)-2,4-diamino-6-((1-(3-(6-aminopyridin-3-yl)-5-chloro-4-oxo-3,4-dihydroquinazolin-2-yl)butyl)amino)pyrimidine-5-carbonitrile]
2 nM | 460 nM |  |  |  |  | C[C@H](Nc1ncnc(N)c1C#N)c1nc2cccc(Cl)c2c(=O)n1-c1cncc(N)c1 [Compound 109, (S)-4-amino-6-((1-(3-(5-aminopyridin-3-yl)-5-chloro-4-oxo-3,4-dihydroquinazolin-2-yl)ethyl)amino)pyrimidine-5-carbonitrile]
4 nM | 28 nM |  |  |  |  | Cc1cc(N)ncc1-n1c([C@H](C)Nc2nc(N)nc(N)c2C#N)nc2c(Cl)ccc(Cl)c2c1=O (atropisomer, axis not shown) [Compound 95, (S)-2,4-diamino-6-((1-(3-(6-amino-4-methylpyridin-3-yl)-5,8-dichloro-4-oxo-3,4-dihydroquinazolin-2-yl)ethyl)amino)pyrimidine-5-carbonitrile]
0.6 nM | 2 nM |  |  |  |  | N#Cc1c(N)nc(N)nc1N[C@H](c1nc2cccc(Cl)c2c(=O)n1-c1ccc(N)nc1)C1CC1 [Compound 90, (S)-2,4-diamino-6-(((3-(6-aminopyridin-3-yl)-5-chloro-4-oxo-3,4-dihydroquinazolin-2-yl)(cyclopropyl)methyl)amino)pyrimidine-5-carbonitrile]
4 nM | 99 nM |  |  |  |  | CC[C@H](Nc1nc(N)nc(N)c1C#N)c1nc2cccc(Cl)c2c(=O)n1-c1cnc(N)cc1C (atropisomer, axis not shown) [Compound 91, (S)-2,4-diamino-6-((1-(3-(6-amino-4-methylpyridin-3-yl)-5-chloro-4-oxo-3,4-dihydroquinazolin-2-yl)propyl)amino)pyrimidine-5-carbonitrile]
2 nM |  | < 1 nM | 0.4 nM | > 10 h | > 10 h | Cc1cncc(-n2c([C@H](C)Nc3nc(N)nc(N)c3C#N)nc3c(F)ccc(Cl)c3c2=O)c1 [Compound 32, (S)-2,4-diamino-6-(1-(5-chloro-8-fluoro-3-(5-methylpyridin-3-yl)-4-oxo-3,4-dihydroquinazolin-2-yl)ethylamino)pyrimidine-5-carbonitrile]
1 nM | 3 nM |  |  |  |  | N#Cc1c(N)nc(N)nc1N[C@H](c1nc2c(F)ccc(Cl)c2c(=O)n1-c1ccc(N)nc1)C1CC1 [Compound 107, (S)-2,4-diamino-6-(((3-(6-aminopyridin-3-yl)-5-chloro-8-fluoro-4-oxo-3,4-dihydroquinazolin-2-yl)(cyclopropyl)methyl)amino)pyrimidine-5-carbonitrile]

From US9221795B2, “Phosphatidylinositol 3-kinase inhibitors” (Gilead Sciences, Inc., priority 2013, dated 2015)
